Test results from US20080181866A1, “Amido Anti-viral Compounds” (Genelabs Technologies, Inc., priority 2006, published 2008).

Tested on: HCV replication
Test: HCV replicon assay (luciferase) in ET (Huh-lucubineo-ET) cell line
Assay type: cell-based
Conditions: Hepatitis C virus, tested at 5 μM; ET replicon cells; luciferase activity measured 48-72 hours later; relative to no compound control
Protocol: A cell line, ET (Huh-lucubineo-ET) was used for screening of compounds of the present invention for inhibiting HCV replication. The ET cell line was stably transfected with RNA transcripts harboring a I389luc-ubi-neo/NS3-3′/ET; replicon with firefly luciferase-ubiquitin-neomycin phosphotransferase fusion protein and EMCV-IRES driven NS3-5B polyprotein containing the cell culture adaptive mutations (E1202G; T12801; K1846T) (Krieger at al, 2001 and unpublished). The ET cells were grown in DMEM (Dulbeco's Modified Eagle's Medium), supplemented with 10% fetal calf serum, 2 mM Glutamine, Penicillin (100 IU/mL)/Streptomycin (100 μg/mL), 1× nonessential amino acids, and 250 μg/mL G418 (“Geneticin”). They were all available through Life Technologies (Bethesda, Md.). The cells were plated at 0.5-1.0×10^4 cells/well in the 96 well plates and incubated for 24 hrs before adding testing compounds. Then the compounds were added to the cells to achieve a final concentration of 0.1 nM to 50 μM and a final DMSO concentration of 0.5%. Luciferase activity were measured 48-72 hours later by adding a lysis buffer and the substrate (Catalog number Glo-lysis buffer E2661 and Bright-Glo luciferase system E2620 Promega, Madison, Wis.). Cells should not be too confluent during the assay. Percent inhibition of replication was plotted relative to no compound control. Under the same condition, cytotoxicity of the compounds was determined using cell proliferation reagent, WST-1 (Roche, Germany). The compounds showing antiviral activities, but no significant cytotoxicities were chosen to determine EC50 and TC50. For these determinations, a 10 point 2-fold serial dilution for each compound was used, which spans a concentration range of 1000 fold. EC50 and similarly TC50 values were calculated by fitting % inhibition at each concentration to the following equation:
% inhibition=100%/[(IC50/[I])^b+1]
where b is Hill's coefficient.
In some preferred embodiments compounds of Formula I will have a % inhibition of at least 20% when tested at 5 μM. In other embodiments the compounds of Formula I will have a % inhibition of at least 50% when tested at 5 μM.

| SMILES | inhibition at 5 µM |
| --- | --- |
| O=C(NC1CC1)c1ccc(-c2csc(NC(=O)[C@@H]3CSC(CC4CCOCC4)N3C(=O)OCc3ccccc3)n2)cc1 (mixture of isomers) [Compound 7004, (R)-4-[4-(4-Cyclopropylcarbamoyl-phenyl)-thiazol-2-ylcarbamoyl]-2-(tetrahydro-pyran-4-ylmethyl)-thiazolidine-3-carboxylic acid benzyl ester] | 99.9% |
| O=C(NC1CC1)c1ccc(-c2csc(NC(=O)[C@@H]3CSC(c4ccnc5ccccc45)N3C(=O)OCc3ccccc3)n2)cc1 (mixture of isomers) [Compound 7007, (R)-4-[4-(4-Cyclopropylcarbamoyl-phenyl)-thiazol-2-ylcarbamoyl]-2-quinolin-4-yl-thiazolidine-3-carboxylic acid benzyl ester] | 100% |
| O=C(NC1CC1)c1ccc(-c2csc(NC(=O)[C@@H]3CSC(c4ccncc4F)N3C(=O)OCc3ccccc3)n2)cc1 (mixture of isomers) [Compound 7008, (R)-4-[4-(4-Cyclopropylcarbamoyl-phenyl)-thiazol-2-ylcarbamoyl]-2-(3-fluoro-pyridin-4-yl)-thiazolidine-3-carboxylic acid benzyl ester] | 100% |
| O=C(NC1CC1)c1ccc(-c2csc(NC(=O)[C@@H]3CSC(c4ccc(F)cc4)N3C(=O)OCc3ccccc3)n2)cc1 (mixture of isomers) [Compound 7013, (R)-4-[4-(4-Cyclopropylcarbamoyl-phenyl)-thiazol-2-ylcarbamoyl]-2-(4-fluoro-phenyl)-thiazolidine-3-carboxylic acid benzyl ester] | 99.7% |
| O=C(O)c1ccc(C2SC[C@@H](C(=O)Nc3nc(-c4ccc(C(=O)NC5CC5)cc4)cs3)N2C(=O)OCc2ccccc2)cc1 (mixture of isomers) [Compound 7014, (R)-2-(4-Carboxy-phenyl)-4-[4-(4-cyclopropylcarbamoyl-phenyl)-thiazol-2-ylcarbamoyl]-thiazolidine-3-carboxylic acid benzyl ester] | 97.7% |
| O=C(NC1CC1)c1ccc(-c2csc(NC(=O)[C@@H]3CSC(c4cncs4)N3C(=O)OCc3ccccc3)n2)cc1 (mixture of isomers) [Compound 7015, (R)-4-[4-(4-Cyclopropylcarbamoyl-phenyl)-thiazol-2-ylcarbamoyl]-4,5-dihydro-[2,5′]bithiazolyl-3-carboxylic acid benzyl ester] | 100% |
| COc1cccc(C2SC[C@@H](C(=O)Nc3nc(-c4ccc(C(=O)NC5CC5)cc4)cs3)N2C(=O)OCc2ccccc2)c1 (mixture of isomers) [Compound 7016, (R)-4-[4-(4-Cyclopropylcarbamoyl-phenyl)-thiazol-2-ylcarbamoyl]-2-(3-methoxy-phenyl)-thiazolidine-3-carboxylic acid benzyl ester] | 98.5% |
| N#Cc1ccc(C2SC[C@@H](C(=O)Nc3nc(-c4ccc(C(=O)NC5CC5)cc4)cs3)N2C(=O)OCc2ccccc2)cc1 (mixture of isomers) [Compound 7017, (R)-2-(4-Cyano-phenyl)-4-[4-(4-cyclopropylcarbamoyl-phenyl)-thiazol-2-ylcarbamoyl]-thiazolidine-3-carboxylic acid benzyl ester] | 100% |
| O=C(NC1CC1)c1ccc(-c2csc(NC(=O)[C@@H]3CSC(C4CCCNC4)N3C(=O)OCc3ccccc3)n2)cc1 (mixture of isomers) [Compound 7021, (R)-4-[4-(4-Cyclopropylcarbamoyl-phenyl)-thiazol-2-ylcarbamoyl]-2-piperidin-3-yl-thiazolidine-3-carboxylic acid benzyl ester] | 100% |
| O=C(NC1CC1)c1ccc(-c2csc(NC(=O)[C@@H]3CSC(c4cncnc4)N3C(=O)OCc3ccccc3)n2)cc1 (mixture of isomers) [Compound 7022, (R)-4-[4-(4-Cyclopropylcarbamoyl-phenyl)-thiazol-2-ylcarbamoyl]-2-pyrimidin-5-yl-thiazolidine-3-carboxylic acid benzyl ester] | 100% |
| O=C(NC1CC1)c1ccc(-c2csc(NC(=O)[C@@H]3CSC(C4CCOCC4)N3C(=O)OCc3ccccc3)n2)cc1 (mixture of isomers) [Compound 7025, (R)-4-[4-(4-Cyclopropylcarbamoyl-phenyl)-thiazol-2-ylcarbamoyl]-2-(tetrahydro-pyran-4-yl)-thiazolidine-3-carboxylic acid benzyl ester] | 100% |
| O=C(NC1CC1)c1ccc(-c2csc(NC(=O)[C@@H]3CSC(c4ccnc(Cl)c4)N3C(=O)OCc3ccccc3)n2)cc1 (mixture of isomers) [Compound 7029, (R)-2-(2-Chloro-pyridin-4-yl)-4-[4-(4-cyclopropylcarbamoyl-phenyl)-thiazol-2-ylcarbamoyl]-thiazolidine-3-carboxylic acid benzyl ester] | 99.8% |
| COc1ccc(C2SC[C@@H](C(=O)Nc3nc(-c4ccc(C(=O)NC5CC5)cc4)cs3)N2C(=O)OCc2ccccc2)cc1 (mixture of isomers) [Compound 7030, (R)-4-[4-(4-Cyclopropylcarbamoyl-phenyl)-thiazol-2-ylcarbamoyl]-2-(4-methoxy-phenyl)-thiazolidine-3-carboxylic acid benzyl ester] | 99.9% |
| O=C(NC1CC1)c1ccc(-c2csc(NC(=O)[C@@H]3CSC(c4ccncc4)N3C(=O)OCc3ccccc3)n2)cc1 (mixture of isomers) [Compound 7031, (R)-4-[4-(4-Cyclopropylcarbamoyl-phenyl)-thiazol-2-ylcarbamoyl]-2-pyridin-4-yl-thiazolidine-3-carboxylic acid benzyl ester] | 99.8% |
| N#Cc1cccc(C2SC[C@@H](C(=O)Nc3nc(-c4ccc(C(=O)NC5CC5)cc4)cs3)N2C(=O)OCc2ccccc2)c1 (mixture of isomers) [Compound 7033, (R)-2-(3-Cyano-phenyl)-4-[4-(4-cyclopropylcarbamoyl-phenyl)-thiazol-2-ylcarbamoyl]-thiazolidine-3-carboxylic acid benzyl ester] | 100% |
| O=C(O)c1cccc(C2SC[C@@H](C(=O)Nc3nc(-c4ccc(C(=O)NC5CC5)cc4)cs3)N2C(=O)OCc2ccccc2)c1 (mixture of isomers) [Compound 7034, (R)-2-(3-Carboxy-phenyl)-4-[4-(4-cyclopropylcarbamoyl-phenyl)-thiazol-2-ylcarbamoyl]-thiazolidine-3-carboxylic acid benzyl ester] | 98.7% |
| O=C(NC1CC1)c1ccc(-c2csc(NC(=O)[C@@H]3CSC(C4CCCCC4)N3C(=O)OCc3ccccc3)n2)cc1 (mixture of isomers) [Compound 7035, (R)-2-Cyclohexyl-4-[4-(4-cyclopropylcarbamoyl-phenyl)-thiazol-2-ylcarbamoyl]-thiazolidine-3-carboxylic acid benzyl ester] | 98.9% |
| O=C(NC1CC1)c1ccc(-c2csc(NC(=O)[C@@H]3CSC(c4cnco4)N3C(=O)OCc3ccccc3)n2)cc1 (mixture of isomers) [Compound 7036, (R)-4-[4-(4-Cyclopropylcarbamoyl-phenyl)-thiazol-2-ylcarbamoyl]-2-oxazol-5-yl-thiazolidine-3-carboxylic acid benzyl ester] | 99.8% |
| O=C(NC1CC1)c1ccc(-c2csc(NC(=O)[C@@H]3CSC(c4ccccc4F)N3C(=O)OCc3ccccc3)n2)cc1 (mixture of isomers) [Compound 7037, (R)-4-[4-(4-Cyclopropylcarbamoyl-phenyl)-thiazol-2-ylcarbamoyl]-2-(2-fluoro-phenyl)-thiazolidine-3-carboxylic acid benzyl ester] | 100% |
| O=C(NC1CC1)c1ccc(-c2csc(NC(=O)[C@@H]3CSC(C4CCNCC4)N3C(=O)OCc3ccccc3)n2)cc1 (mixture of isomers) [Compound 7042, (R)-4-[4-(4-Cyclopropylcarbamoyl-phenyl)-thiazol-2-ylcarbamoyl]-2-piperidin-4-yl-thiazolidine-3-carboxylic acid benzyl ester] | 100% |
| COc1ccccc1C1SC[C@@H](C(=O)Nc2nc(-c3ccc(C(=O)NC4CC4)cc3)cs2)N1C(=O)OCc1ccccc1 (mixture of isomers) [Compound 7047, (R)-4-[4-(4-Cyclopropylcarbamoyl-phenyl)-thiazol-2-ylcarbamoyl]-2-(2-methoxy-phenyl)-thiazolidine-3-carboxylic acid benzyl ester] | 99.6% |
| O=C(NC1CC1)c1ccc(-c2csc(NC(=O)[C@@H]3CSC(c4cccc(F)c4)N3C(=O)OCc3ccccc3)n2)cc1 (mixture of isomers) [Compound 7048, (R)-4-[4-(4-Cyclopropylcarbamoyl-phenyl)-thiazol-2-ylcarbamoyl]-2-(3-fluoro-phenyl)-thiazolidine-3-carboxylic acid benzyl ester] | 99.3% |
| O=C(NC1CC1)c1ccc(-c2csc(NC(=O)[C@@H]3CSC(c4ccnc(O)c4)N3C(=O)OCc3ccccc3)n2)cc1 (mixture of isomers) [Compound 7049, (R)-4-[4-(4-Cyclopropylcarbamoyl-phenyl)-thiazol-2-ylcarbamoyl]-2-(2-hydroxy-pyridin-4-yl)-thiazolidine-3-carboxylic acid benzyl ester] | 98.8% |
